Read-outs that look alike come from different tables or passages of the source.
Columns and labels:
[1] = test system: A.D.P.-induced blood-platelet aggregation; experiment: A.D.P.-induced blood-platelet aggregation (plasma of orally treated rats); assay type: in vivo, rats of Wistar strain; settings: Rattus norvegicus, oral 100 mg/kg, 3 hours after treatment, 10 μM A.D.P., read-out: Percent inhibition of blood-platelet aggregation, A.D.P.
Experimental: (§1) A blood sample is taken from the jugular vein of rats of Wistar strain. From this citrated blood, and after centrifugation, is reconstituted a plasma containing 600,000 ± 20,000 platelets per mm^3 which will be used in all aggregation determinations. (a) Determination of A.D.P.-induced blood-platelet aggregation 0.4 ml plasma is placed in a siliconized tube provided with a magnetic bar, which is also siliconized. The tube is introduced into an aggregometer connected with an optical density variation recorder. When light transmission has reached a stable value, 0.5 ml of a solution containing 10 μM A.D.P. (adenosine-diphosphate) are introduced in the tube. Blood-platelet aggregation then induces an increase of light transmission followed by a decrease subsequent to the deaggregation phase. The thus determined maximum variation of optical density characterizes the intensity of the aggregation. Different groups of 20 rats are used, each group being administered orally a test derivative, at a dosage of 100 mg/kg. The results obtained in the course of tests a) and b) are tabulated in following Table I which indicates the percent inhibition of blood-plateletaggregation obtained, with respect to the control, 3 hours after treatment.

[2] = test system: collagen-induced blood-platelet aggregation; experiment: Collagen-induced blood-platelet aggregation (plasma of orally treated rats); assay type: in vivo, rats of Wistar strain; settings: Rattus norvegicus, oral 100 mg/kg, 3 hours after treatment, collagen (bovine tendon extract), read-out: Percent inhibition of blood-platelet aggregation, Collagen
Experimental: as §1, with “determinations.” for “determinations. (a) Determination of A.D.P.-induced blood-platelet aggregation”, “aggregation. (b) Determination of collagen-induced blood-platelet aggregation The A.D.P. solution is substituted with a collagen solution (bovine tendon extract).” for “aggregation.”

[3] = test system: carrageenin-induced edema; experiment: Localised carrageenin-induced edema method; assay type: in vivo; settings: Rattus norvegicus, rats, oral 100 mg/kg at -1, 0, 1 and 2.5 hours
Experimental: (a) Localised carrageenin-induced edema method: A 1% carrageenin solution (0.1 ml) is injected in the metatarsal flexor muscles of the right hind limb of rats at time 0. The animals of the treated group are additionally administered orally 100 mg/kg of the test derivative, respectively one hour prior to and then simultaneously with the phlogogenic agent, and then one hour and 2.5 hours thereafter. The percent antiinflammatory activity, as a function of time, is determined with respect to the control group by measurements effected with a ROCH micrometer at times 0, one hour, two hours, three hours and five hours after carrageenin administration.

[4] = test system: ovalbumin-induced systemic edema; experiment: Ovalbumin-induced systemic edema method; assay type: in vivo; settings: Rattus norvegicus, rats, oral 100 mg/kg one hour prior to and simultaneously with ovalbumin
Experimental: (b) Ovalbumin-induced systemic edema method Rats are administered a simultaneous intraperitoneal injection of 1 ml ovalbumin and 0.5 ml of a 1% aqueous Evans Blue solution. The animals of the treated group are additionally administered orally 100 mg/kg of the test derivative, one hour prior to and simultaneously with said ovalbumin administration. The intensity of the phenomenon thus induced is scored according to a scale from 1 to 5, according to the progress of the inflammatory syndrome. Thus are determined with respect to the control group the mean intensity and the percent decrease of the edema reaction, as a function of time. The percent anti-inflammatory activity obtained 2 hours and 3 hours, respectively, after ovalbumin injection, is tabulated in following Table III: […]

[5] = Potentiation of hypnotics (infrahypnotic sodium pentobarbital); assay type: in vivo; settings: mice, oral 50 mg/kg, thirty minutes prior to i.p. infrahypnotic sodium pentobarbital
Experimental: In addition, the compounds of the formula (I) potentiate very markedly the effect of hypnotics. Indeed, on oral administration to different groups of mice, at a dosage of 50 mg/kg, thirty minutes prior to intraperitoneal injection of an infrahypnotic dosage of sodium pentobarbital, they produce, with respect to the untreated reference animals, a marked potentiation of the barbiturate.

[6] = 1 hour after carrageenin, read-out: Percent anti-inflammatory activity after 1 hour
[7] = 2 hours after carrageenin, read-out: Percent anti-inflammatory activity after 2 hours
[8] = 3 hours after carrageenin, read-out: Percent anti-inflammatory activity after 3 hours
[9] = 5 hours after carrageenin, read-out: Percent anti-inflammatory activity after 5 hours
[10] = 2 hours after ovalbumin injection, read-out: Percent anti-inflammatory activity after 2 hours
[11] = 3 hours after ovalbumin injection, read-out: Percent anti-inflammatory activity after 3 hours

SMILES | inhibition in vivo at 100 mg/kg [1] | inhibition in vivo at 100 mg/kg [2] | inhibition in vivo at 100 mg/kg [3, 6] | inhibition in vivo at 100 mg/kg [3, 7] | inhibition in vivo at 100 mg/kg [3, 8] | inhibition in vivo at 100 mg/kg [3, 9] | inhibition in vivo at 100 mg/kg [4, 10] | inhibition in vivo at 100 mg/kg [4, 11] | percent animals put to sleep [5]
COC(=O)c1sc2c(c1O)CN(Cc1ccccc1Cl)CC2 [Derivative n°5, 5-o-Chlorobenzyl-3-hydroxy-2-methoxycarbonyl-4,5,6,7-tetrahydro-thieno[3,2-c]pyridine] | 64.4% | 96.7% | 41% | 47% | 51% | 55% | 47% | 55% | 70%
CCOC(=O)c1sc2c(c1O)CN(C(=O)c1ccccc1)CC2 [Derivative n°2, 5-benzoyl-2-ethoxycarbonyl-3-hydroxy-4,5,6,7-tetrahydro-thieno[3,2-c]pyridine] | 62.8% | 94.6% | 42% | 48% | 50% | 53% | 49% | 58% | 60%
CCOC(=O)c1sc2c(c1O)CN(C)CC2 [Derivative n°6, 2-Ethoxycarbonyl-3-hydroxy-5-methyl-4,5,6,7-tetrahydro-thieno[3,2-c]pyridine] | 63.8% | 93.2% | 34% | 40% | 43% | 48% | 52% | 59% | 90%
CCOC(=O)c1sc2c(c1O)CN(Cc1ccccc1Cl)CC2 [Derivative n°1, 5-o-Chlorobenzyl-2-ethoxycarbonyl-3-hydroxy-4,5,6,7-tetrahydro-thieno[3,2-c]pyridine] | 61.2% | 90.2% | 46% | 53% | 56% | 60% | 54% | 63% | 60%
CCOC(=O)c1sc2c(c1O)CN(C(=O)OCC)CC2 [Derivative n°11, 2,5-Diethoxycarbonyl-3-hydroxy-4,5,6,7-tetrahydro-thieno[3,2-c]pyridine] | 62.1% | 91% | 40% | 46% | 49% | 53% | 51% | 61% | 60%
CCOC(=O)c1sc2c(c1O)CN(CCc1ccccc1)CC2 [Derivative n°9, 2-Ethoxycarbonyl-3-hydroxy-5-phenethyl-4,5,6,7-tetrahydro-thieno[3,2-c]pyridine] | 64.5% | 93.8% | 42% | 46% | 50% | 54% | 53% | 62% | 100%
CCOC(=O)c1sc2c(c1OC(C)=O)CN(Cc1ccccc1Cl)CC2 [Derivative n°3, 3-acetoxy-5-o-chlorobenzyl-2-ethoxycarbonyl-4,5,6,7-tetrahydro-thieno[3,2-c]pyridine] | 62.4% | 92.9% | 38% | 45% | 49% | 51% | 51% | 59% | 80%
CCOC(=O)c1sc2c(c1O)CN(Cc1ccccc1)CC2.Cl [Derivative n°4, 5-Benzyl-2-ethoxycarbonyl-3-hydroxy-4,5,6,7-tetrahydro-thieno[3,2-c]pyridine hydrochloride] | 64.8% | 95.2% | 39% | 45% | 50% | 53% | 48% | 56% | 70%
CCOC(=O)c1sc2c(c1O)CNCC2 [Derivative n°7, 2-Ethoxycarbonyl-3-hydroxy-4,5,6,7-tetrahydro-thieno[3,2-c]pyridine] | 62.5% | 95.6% | 36% | 41% | 45% | 52% | 50% | 60% | 90%
COC(=O)c1sc2c(c1O)CNCC2 [Derivative n°8, 3-Hydroxy-2-methoxycarbonyl-4,5,6,7-tetrahydro-thieno[3,2-c]pyridine] | 62.1% | 94.3% | 43% | 49% | 53% | 55% | 48% | 57% | 80%
CCCCOC(=O)c1sc2c(c1O)CN(Cc1ccccc1Cl)CC2 [Derivative n°10, 2-Butoxycarbonyl-5-o-chlorobenzyl-3-hydroxy-4,5,6,7-tetrahydro-thieno[3,2-c]pyridine] | 63.6% | 90.2% | 37% | 42% | 48% | 51% | 50% | 59% | 90%

— patent US4136186A, “Thieno[3,2-c]pyridine derivatives” (Parcor, priority 1976, dated 1979)
